#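 Step 1: Grow cells in 96-well plates. Step 2: Expose to compound for 48 hours at 5 concentrations. Step 3: Interpolate endpoints linearly; if unreached, use highest concentration. The concentration for 50% growth inhibition is given as GI50. The concentration for full growth arrest is given as TGI.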
# Assays:
# Experiment in all cases: DTP human tumour cell line panel, 48 h
# RXF 393 renal = tested on: RXF 393 renal
# MDA-MB-468 breast = tested on: MDA-MB-468 breast
# T-47D breast = tested on: T-47D breast
# HL-60(TB) leukemia = tested on: HL-60(TB) leukemia
# SF-539 CNS = tested on: SF-539 CNS
# OVCAR-5 ovarian = tested on: OVCAR-5 ovarian
# MALME-3M melanoma = tested on: MALME-3M melanoma
# OVCAR-3 ovarian = tested on: OVCAR-3 ovarian
# K-562 leukemia = tested on: K-562 leukemia
# COLO 205 colon = tested on: COLO 205 colon
# SF-268 CNS = tested on: SF-268 CNS
# SK-MEL-28 melanoma = tested on: SK-MEL-28 melanoma
# HT29 colon = tested on: HT29 colon
# MDA-MB-231 breast = tested on: MDA-MB-231 breast
# HOP-92 NSCLC = tested on: HOP-92 NSCLC
# HCC-2998 colon = tested on: HCC-2998 colon
# TK-10 renal = tested on: TK-10 renal
# SR leukemia = tested on: SR leukemia
# DU-145 prostate = tested on: DU-145 prostate
# CAKI-1 renal = tested on: CAKI-1 renal
# UO-31 renal = tested on: UO-31 renal
# SNB-19 CNS = tested on: SNB-19 CNS
# HCT-15 colon = tested on: HCT-15 colon
# OVCAR-8 ovarian = tested on: OVCAR-8 ovarian
# 786-0 renal = tested on: 786-0 renal
# ACHN renal = tested on: ACHN renal
# MCF7 breast = tested on: MCF7 breast
# CCRF-CEM leukemia = tested on: CCRF-CEM leukemia
# EKVX NSCLC = tested on: EKVX NSCLC
# MDA-MB-435 = tested on: MDA-MB-435
# UACC-62 melanoma = tested on: UACC-62 melanoma
# OVCAR-4 ovarian = tested on: OVCAR-4 ovarian
# HCT-116 colon = tested on: HCT-116 colon
# LOX IMVI melanoma = tested on: LOX IMVI melanoma
# A498 renal = tested on: A498 renal
# NCI-H226 lung = tested on: NCI-H226 lung
# A549 NSCLC = tested on: A549 NSCLC
# IGROV1 ovarian = tested on: IGROV1 ovarian
# SK-MEL-2 melanoma = tested on: SK-MEL-2 melanoma
# SN12C renal = tested on: SN12C renal
# SW-620 colon = tested on: SW-620 colon
# HOP-62 NSCLC = tested on: HOP-62 NSCLC
# PC-3 prostate = tested on: PC-3 prostate
# SK-MEL-5 melanoma = tested on: SK-MEL-5 melanoma
# SNB-75 CNS = tested on: SNB-75 CNS
# MOLT-4 leukemia = tested on: MOLT-4 leukemia
# U251 CNS = tested on: U251 CNS
# NCI/ADR-RES ovarian = tested on: NCI/ADR-RES ovarian
# NCI-H460 lung = tested on: NCI-H460 lung
# M14 melanoma = tested on: M14 melanoma
# UACC-257 melanoma = tested on: UACC-257 melanoma
# HS 578T breast = tested on: HS 578T breast
# SF-295 CNS = tested on: SF-295 CNS
# BT-549 breast = tested on: BT-549 breast
# KM12 colon = tested on: KM12 colon
# NCI-H522 lung = tested on: NCI-H522 lung
# NCI-H23 lung = tested on: NCI-H23 lung
# RPMI-8226 leukemia = tested on: RPMI-8226 leukemia
# SK-OV-3 ovarian = tested on: SK-OV-3 ovarian
smiles,measurement,setting,value
C#C[C@]1(O)CC[C@H]2[C@@H]3CC=C4c5sc(Nc6ccc(C(F)(F)F)cn6)nc5CC[C@]4(C)[C@H]3CC[C@@]21C,GI50,RXF 393 renal,0.723 µM
same,TGI,RXF 393 renal,2.54 µM
same,GI50,MDA-MB-468 breast,3.16 µM
same,TGI,MDA-MB-468 breast,18.9 µM
same,GI50,T-47D breast,3.58 µM
same,TGI,T-47D breast,18.4 µM
same,GI50,HL-60(TB) leukemia,2.67 µM
same,TGI,HL-60(TB) leukemia,7.65 µM
same,GI50,SF-539 CNS,0.89 µM
same,TGI,SF-539 CNS,2.66 µM
same,GI50,OVCAR-5 ovarian,4.48 µM
same,TGI,OVCAR-5 ovarian,23.8 µM
same,GI50,MALME-3M melanoma,2.89 µM
same,TGI,MALME-3M melanoma,14.1 µM
same,GI50,OVCAR-3 ovarian,4.68 µM
same,TGI,OVCAR-3 ovarian,35.1 µM
same,GI50,K-562 leukemia,2.73 µM
same,TGI,K-562 leukemia,> 100 µM
same,GI50,COLO 205 colon,2.75 µM
same,TGI,COLO 205 colon,13.8 µM
same,GI50,SF-268 CNS,4.04 µM
same,TGI,SF-268 CNS,32.6 µM
same,GI50,SK-MEL-28 melanoma,1.39 µM
same,TGI,SK-MEL-28 melanoma,2.93 µM
same,GI50,HT29 colon,3.85 µM
same,TGI,HT29 colon,30.5 µM
same,GI50,MDA-MB-231 breast,1.88 µM
same,TGI,MDA-MB-231 breast,4.44 µM
same,GI50,HOP-92 NSCLC,5.41 µM
same,TGI,HOP-92 NSCLC,26.1 µM
same,GI50,HCC-2998 colon,4.82 µM
same,TGI,HCC-2998 colon,18.3 µM
same,GI50,TK-10 renal,6.83 µM
same,TGI,TK-10 renal,91.2 µM
same,GI50,SR leukemia,2.47 µM
same,TGI,SR leukemia,20.4 µM
same,GI50,DU-145 prostate,4.6 µM
same,TGI,DU-145 prostate,22.5 µM
same,GI50,CAKI-1 renal,1.92 µM
same,TGI,CAKI-1 renal,5.62 µM
same,GI50,UO-31 renal,3.09 µM
same,TGI,UO-31 renal,13.7 µM
same,GI50,SNB-19 CNS,2.9 µM
same,TGI,SNB-19 CNS,12.2 µM
same,GI50,HCT-15 colon,1.72 µM
same,TGI,HCT-15 colon,4.96 µM
same,GI50,OVCAR-8 ovarian,9.96 µM
same,TGI,OVCAR-8 ovarian,> 100 µM
same,GI50,786-0 renal,1.47 µM
same,TGI,786-0 renal,3.45 µM
same,GI50,ACHN renal,3.34 µM
same,TGI,ACHN renal,24.2 µM
same,GI50,MCF7 breast,1.96 µM
same,TGI,MCF7 breast,4.49 µM
same,GI50,CCRF-CEM leukemia,2.76 µM
same,TGI,CCRF-CEM leukemia,> 100 µM
same,GI50,EKVX NSCLC,2.15 µM
same,TGI,EKVX NSCLC,8.58 µM
same,GI50,MDA-MB-435,3.04 µM
same,TGI,MDA-MB-435,11.9 µM
same,GI50,UACC-62 melanoma,1.95 µM
same,TGI,UACC-62 melanoma,4.5 µM
same,GI50,OVCAR-4 ovarian,3.65 µM
same,TGI,OVCAR-4 ovarian,31 µM
same,GI50,HCT-116 colon,3.22 µM
same,TGI,HCT-116 colon,13.7 µM
same,GI50,LOX IMVI melanoma,1.84 µM
same,TGI,LOX IMVI melanoma,4.25 µM
same,GI50,A498 renal,2.43 µM
same,TGI,A498 renal,5.45 µM
same,GI50,NCI-H226 lung,3.91 µM
same,TGI,NCI-H226 lung,19.9 µM
same,GI50,A549 NSCLC,6.95 µM
same,TGI,A549 NSCLC,> 100 µM
same,GI50,IGROV1 ovarian,4.16 µM
same,TGI,IGROV1 ovarian,21 µM
same,GI50,SK-MEL-2 melanoma,2.91 µM
same,TGI,SK-MEL-2 melanoma,10.6 µM
same,GI50,SN12C renal,4.77 µM
same,TGI,SN12C renal,19.2 µM
same,GI50,SW-620 colon,2.04 µM
same,TGI,SW-620 colon,5.03 µM
same,GI50,HOP-62 NSCLC,2.32 µM
same,TGI,HOP-62 NSCLC,11.3 µM
same,GI50,PC-3 prostate,1.98 µM
same,TGI,PC-3 prostate,> 100 µM
same,GI50,SK-MEL-5 melanoma,2.09 µM
same,TGI,SK-MEL-5 melanoma,4.8 µM
same,GI50,SNB-75 CNS,1.27 µM
same,TGI,SNB-75 CNS,12.7 µM
same,GI50,MOLT-4 leukemia,2.62 µM
same,TGI,MOLT-4 leukemia,13.7 µM
same,GI50,U251 CNS,1.72 µM
same,TGI,U251 CNS,11.3 µM
same,GI50,NCI/ADR-RES ovarian,3.76 µM
same,TGI,NCI/ADR-RES ovarian,46 µM
same,GI50,NCI-H460 lung,2.86 µM
same,TGI,NCI-H460 lung,10.6 µM
same,GI50,M14 melanoma,2.57 µM
same,TGI,M14 melanoma,9.92 µM
same,GI50,UACC-257 melanoma,3.85 µM
same,TGI,UACC-257 melanoma,18.4 µM
same,GI50,HS 578T breast,1.45 µM
same,TGI,HS 578T breast,5.27 µM
same,GI50,SF-295 CNS,0.565 µM
same,TGI,SF-295 CNS,2.07 µM
same,GI50,BT-549 breast,2.54 µM
same,TGI,BT-549 breast,8.13 µM
same,GI50,KM12 colon,4.49 µM
same,TGI,KM12 colon,18.4 µM
same,GI50,NCI-H522 lung,3.97 µM
same,TGI,NCI-H522 lung,16.2 µM
same,GI50,NCI-H23 lung,3.08 µM
same,TGI,NCI-H23 lung,15.5 µM
same,GI50,RPMI-8226 leukemia,0.564 µM
same,TGI,RPMI-8226 leukemia,> 100 µM
same,GI50,SK-OV-3 ovarian,2.83 µM
same,TGI,SK-OV-3 ovarian,26.7 µM

# From PubChem BioAssay (NCI)
